{"source": "patent US11124541B2", "about": "“Chimeric melanocortin ligands and methods of use thereof” (REGENTS OF THE UNIVERSITY OF MINNESOTA, priority 2016, dated 2021)", "key": {"male mice": {"test_system": "male mice", "assay": "ICV or IT administration in male mice monitored in TSE metabolic cages", "assay_type": "in vivo", "description": "As described herein, compound 2 (c[Pro-His-DPhe-Arg-Trp-Dap-Ala-DPro] (SEQ ID NO:4)) has been administered in male mice. This compound has been administered via a cannula directly into the brain (ICV administration) or through an injection into the spinal cord (IT administration), at three different doses each administration route (2 nmol, 5 nmol, and 10 nmol). After compound administration, the mice were monitored in TSE metabolic cages, which record food intake, water intake, ambulatory activity (how many times a mouse breaks a light beam, which can give an indication of toxicity), respiratory-exchange ratio (RER, ratio between amount of CO2 produced in metabolism and O2 consumed, giving an indication if fat [RER value closer to 0.7] or carbohydrates [RER value closer to 1] is the energy source being utilized), and energy expenditure."}, "mMC5R [1]": {"target": "T1, mMC5R (Mus musculus, UniProt P41149)", "T1 sequence (P41149 whole entry)": "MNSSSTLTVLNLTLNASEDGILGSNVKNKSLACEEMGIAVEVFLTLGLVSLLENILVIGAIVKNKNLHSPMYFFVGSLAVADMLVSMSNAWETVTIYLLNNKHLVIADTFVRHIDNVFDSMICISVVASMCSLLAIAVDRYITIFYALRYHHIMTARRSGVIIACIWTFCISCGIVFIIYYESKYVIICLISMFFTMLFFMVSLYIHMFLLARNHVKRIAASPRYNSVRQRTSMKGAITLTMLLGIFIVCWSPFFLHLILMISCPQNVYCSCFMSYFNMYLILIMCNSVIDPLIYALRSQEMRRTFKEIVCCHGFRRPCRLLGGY", "assay": "cAMP AlphaScreen agonist assay, HEK293 cells stably expressing mouse MC5R"}, "mMC3R [2]": {"target": "T2, mMC3R (Mus musculus, UniProt P33033)", "T2 sequence (P33033 whole entry)": "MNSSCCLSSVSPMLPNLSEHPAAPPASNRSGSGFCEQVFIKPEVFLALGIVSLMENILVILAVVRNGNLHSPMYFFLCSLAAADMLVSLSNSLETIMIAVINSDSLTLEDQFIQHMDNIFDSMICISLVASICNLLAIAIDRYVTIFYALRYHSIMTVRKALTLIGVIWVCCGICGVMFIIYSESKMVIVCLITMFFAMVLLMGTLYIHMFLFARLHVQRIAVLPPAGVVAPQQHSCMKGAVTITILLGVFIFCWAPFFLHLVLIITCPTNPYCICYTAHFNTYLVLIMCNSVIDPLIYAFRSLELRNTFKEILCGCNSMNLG", "assay": "cAMP AlphaScreen agonist assay, HEK293 cells stably expressing mouse MC3R"}, "mMC1R [3]": {"target": "T3, mMC1R (Mus musculus, UniProt Q01727)", "T3 sequence (Q01727 whole entry)": "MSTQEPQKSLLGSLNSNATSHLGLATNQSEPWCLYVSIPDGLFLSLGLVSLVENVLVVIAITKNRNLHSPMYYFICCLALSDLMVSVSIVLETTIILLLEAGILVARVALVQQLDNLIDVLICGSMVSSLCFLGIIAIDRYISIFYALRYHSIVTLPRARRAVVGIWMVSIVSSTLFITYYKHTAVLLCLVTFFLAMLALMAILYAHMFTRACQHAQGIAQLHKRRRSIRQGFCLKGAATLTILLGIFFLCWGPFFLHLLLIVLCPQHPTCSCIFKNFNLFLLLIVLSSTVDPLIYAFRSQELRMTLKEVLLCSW", "assay": "cAMP AlphaScreen agonist assay, HEK293 cells stably expressing mouse MC1R"}, "mMC4R [4]": {"target": "T4, mMC4R (Mus musculus, UniProt P56450)", "T4 sequence (P56450 whole entry)": "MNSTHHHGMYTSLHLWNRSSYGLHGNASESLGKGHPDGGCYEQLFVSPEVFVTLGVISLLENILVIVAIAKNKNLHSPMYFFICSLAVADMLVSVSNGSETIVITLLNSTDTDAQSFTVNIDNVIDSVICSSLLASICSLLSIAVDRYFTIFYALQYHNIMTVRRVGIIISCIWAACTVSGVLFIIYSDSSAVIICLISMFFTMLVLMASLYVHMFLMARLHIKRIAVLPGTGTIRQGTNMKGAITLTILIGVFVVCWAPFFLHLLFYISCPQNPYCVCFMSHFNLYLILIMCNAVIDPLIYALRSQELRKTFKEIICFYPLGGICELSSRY", "assay": "cAMP AlphaScreen agonist assay, HEK293 cells stably expressing mouse MC4R"}, "mMC4R [5]": {"target": "T4, mMC4R", "set-up": "expressed in transfected cells; host or cells: HEK293", "conditions": "AGRP intrinsic potency; cited from earlier work"}, "mMC1R [6]": {"target": "T3, mMC1R", "set-up": "expressed in transfected cells; host or cells: HEK293", "conditions": "literature value; read-out: reported agonist potency at the mMC1R; cited from earlier work"}, "mMC5R [7]": {"target": "T1, mMC5R", "set-up": "expressed in transfected cells; host or cells: HEK293", "conditions": "literature value; read-out: reported agonist potency at the mMC5R; cited from earlier work"}, "mMC3R [8]": {"target": "T2, mMC3R", "set-up": "expressed in transfected cells; host or cells: HEK293", "conditions": "literature value; read-out: reported agonist potency at the mMC3R; cited from earlier work"}, "mMC4R [9]": {"target": "T4, mMC4R", "set-up": "expressed in transfected cells; host or cells: HEK293", "conditions": "cited from earlier work; for EC50: literature value, read-out: reported agonist potency at the mMC4R; for reported selectivity for the mMC4R over the mMC3R: literature chimeric ligands"}, "[10]": {"conditions": "compound versus vehicle treated animals"}}, "note": "Values joined by “and” are separate entries in the source; they are usually repeats but may differ in a detail not shown here. Equal entries are not always repeated. Where two headings read alike, the source gives them in different places. Non-standard residues stand in square brackets, D forms with d. Residues, ends and D or L forms follow the SMILES beside them. No end group written: not given here. Dap = NC[C@H](N)C(=O)O", "data": [{"compound": "C[C@@H]1NC(=O)[C@H](CN)NC(=O)[C@H](Cc2c[nH]c3ccccc23)NC(=O)[C@H](CCCNC(=N)N)NC(=O)[C@@H](Cc2ccccc2)NC(=O)[C@H](Cc2c[nH]cn2)NC(=O)[C@@H]2CCCN2C(=O)[C@H]2CCCN2C1=O", "note": "[MDE6-5-2c, c[Pro-His-DPhe-Arg-Trp-Dap-Ala-DPro]] (cyclo(H[dF]RW[Dap]A[dP]P))", "values": [{"measurement": "cumulative food intake following ICV administration, 10 nmol", "setting": "male mice; ICV, 10 nmol, 72 h", "result": "decreased food intake through 72 h"}, {"measurement": "Respiratory Exchange Ratio (RER) effect, ICV 10 nmol", "setting": "male mice; ICV, 10 nmol, first 24 h, versus lower doses", "result": "more robust"}, {"measurement": "cumulative food intake following ICV administration", "setting": "male mice; ICV, 2, 5, 10 nmol, first 24 h, dose response", "result": "further decreased food intake"}, {"measurement": "Respiratory Exchange Ratio (RER), ICV 2 and 5 nmol", "setting": "male mice; ICV, 2 and 5 nmol, first 24 h", "result": "decreased RER compared to vehicle control"}, {"measurement": "Respiratory Exchange Ratio (RER) effect, IT administration", "setting": "male mice; IT", "result": "more modest effect"}, {"measurement": "cumulative food intake following IT administration", "setting": "male mice; IT, 2, 5, 10 nmol, not dose-responsive", "result": "decreased food intake was observed"}, {"measurement": "energy expenditure", "setting": "male mice; [10]", "result": "not different"}, {"measurement": "water intake", "setting": "male mice; [10]", "result": "not different"}, {"measurement": "duration of effects on RER following a single dose", "setting": "male mice; single dose, all cases", "result": 24, "unit": "h"}]}, {"compound": "C[C@@H]1NC(=O)[C@H](CN)NC(=O)[C@H](Cc2c[nH]c3ccccc23)NC(=O)[C@H](CCCNC(=N)N)NC(=O)[C@@H](Cc2ccccc2)NC(=O)[C@H](Cc2cnc[nH]2)NC(=O)[C@@H]2CCCN2C(=O)[C@H]2CCCN2C1=O", "note": "[MDE6-5-2c, c[Pro-His-DPhe-Arg-Trp-Dap-Ala-DPro]] (cyclo(H[dF]RW[Dap]A[dP]P))", "values": [{"measurement": "EC50", "setting": "mMC5R [1]; read-out: mMC5R EC50, agonist, cAMP", "result": 0.3, "unit": "nM"}, {"measurement": "EC50", "setting": "mMC3R [2]; read-out: mMC3R EC50, agonist, cAMP", "result": 40, "unit": "nM"}, {"measurement": "EC50", "setting": "mMC1R [3]; read-out: mMC1R EC50, agonist, cAMP", "result": 1.1, "unit": "nM"}, {"measurement": "ambulatory activity", "setting": "male mice; [10]", "result": "not different"}, {"measurement": "selectivity for the mMC4R over the mMC3R", "setting": "mMC4R [4]; agonist potency", "result": 25, "unit": "fold"}, {"measurement": "EC50", "setting": "mMC4R [4]; read-out: mMC4R EC50, agonist, cAMP", "result": 1.6, "unit": "nM"}]}, {"compound": "N=C(N)NCCC[C@@H]1NC(=O)[C@@H](Cc2ccccc2)NC(=O)[C@H](Cc2c[nH]cn2)NC(=O)[C@@H]2CCCN2C(=O)[C@H]2CCCN2C(=O)[C@H](CN)NC(=O)[C@H](Cc2c[nH]c3ccccc23)NC1=O", "note": "[MDE6-12-2c, c[Pro-His-DPhe-Arg-Trp-Dap-DPro]] (cyclo(PH[dF]RW[Dap][dP]))", "values": [{"measurement": "decreased agonist potency at mMC5R relative to MDE6-5-2c", "setting": "mMC5R [1]; relative to MDE6-5-2c", "result": "1,100 fold"}, {"measurement": "agonist activity/efficacy at mMC3R (in words)", "setting": "mMC3R [2]; concentrations up to 100 μM", "result": "partially stimulated"}, {"measurement": "decreased agonist potency at mMC1R relative to MDE6-5-2c", "setting": "mMC1R [3]; relative to MDE6-5-2c", "result": 418, "unit": "fold"}, {"measurement": "decreased agonist potency at mMC4R relative to MDE6-5-2c", "setting": "mMC4R [4]; relative to MDE6-5-2c", "result": 593, "unit": "fold"}]}, {"compound": "AGRP: agouti-related protein, naturally occurring melanocortin antagonist (SSRRCVRLHESCLGQQVPCCDPCATCYCRFFNAFCYCRKLGTAMNPCSRT; ends and bridges not checked; cysteine pairing not given here; UniProt O00253 83-132, looked up)", "values": [{"measurement": "lower potency at the mMC3R versus the mMC4R", "setting": "mMC4R [5]", "result": "~10", "unit": "fold"}]}, {"compound": "Ac-mini-(His-DPhe-Arg-Trp)hAGRP-NH2", "values": [{"measurement": "EC50", "setting": "mMC1R [6]", "result": 0.16, "unit": "nM"}, {"measurement": "EC50", "setting": "mMC5R [7]", "result": "0.6 nM and 0.56 nM"}, {"measurement": "EC50", "setting": "mMC3R [8]", "result": 30, "unit": "nM"}, {"measurement": "EC50", "setting": "mMC4R [9]", "result": 1.4, "unit": "nM"}]}, {"compound": "Tyr-c[Asp-His-DPhe-Arg-Trp-Asn-Ala-Phe-Dap]-Tyr-NH2 (FRWNAF; Tyr-Asp-His, Dap lactam, Tyr-NH2; printed: Phe-Arg-Trp-Asn-Ala-Phe-) [previously reported lactam bridged AGRP/NDP-MSH chimeric ligand]", "values": [{"measurement": "EC50", "setting": "mMC1R [6]", "result": 0.2, "unit": "nM"}, {"measurement": "EC50", "setting": "mMC5R [7]", "result": 0.5, "unit": "nM"}, {"measurement": "EC50", "setting": "mMC3R [8]", "result": 1, "unit": "nM"}, {"measurement": "reported selectivity for the mMC4R over the mMC3R", "setting": "mMC4R [9]", "result": 5, "unit": "fold"}, {"measurement": "EC50", "setting": "mMC4R [9]", "result": 0.2, "unit": "nM"}]}, {"compound": "Tyr-c[Cys-His-DPhe-Arg-Trp-Asn-Ala-Phe-Cys]-Tyr-NH2 (FRWNAFC; not fully specified; Tyr-Cys-His, disulfide, Tyr-NH2; printed: Phe-Arg-Trp-Asn-Ala-Phe-Cys) [previously reported disulfide bridged AGRP/NDP-MSH chimeric ligand]", "values": [{"measurement": "EC50", "setting": "mMC1R [6]", "result": 0.35, "unit": "nM"}, {"measurement": "EC50", "setting": "mMC5R [7]", "result": 2, "unit": "nM"}, {"measurement": "EC50", "setting": "mMC3R [8]", "result": 2, "unit": "nM"}, {"measurement": "reported selectivity for the mMC4R over the mMC3R", "setting": "mMC4R [9]", "result": 7, "unit": "fold"}, {"measurement": "EC50", "setting": "mMC4R [9]", "result": 0.3, "unit": "nM"}]}]}
